The values that follow come from patent US20220040219A1, “COMPOSITIONS AND METHODS FOR TREATING CYSTIC FIBROSIS” (SpliSense Ltd., priority 2019, published 2022).

The assay concerns the target T1, CFTR del Ex23 (Homo sapiens, UniProt P13569, DEL1240-1291).
T1 construct: expressed in transfected cells; host or cells: HEK 293 cells, transient transfection with Lipofectamine 2000
In words: FLIPR membrane potential assay of CFTR function in HEK 293 cells transiently transfected with CFTR del Ex23. Particulars: forskolin 10 μM, addition of potentiator VX-770 (1 μM), FIG. 1B. The class given is cell-based. The procedure:
HEK cells were transiently transfected with a construct bearing a CFTR transcript having exon 23 completely deleted from it (CFTR del Ex23). Transfection was carried out using Lipofectamine 2000 transfection reagent (Invitrogen) according to the lipofectamine 2000 reagent protocol using the following lipofectamine amounts: 96 well—0.15 μl, 6 well—3 μl, […]—15 μl.
HEK cells transfected with the CFTR del Ex23 contruct were grown in 96-well (black, flat bottom; corning) plates. 48 hr post-transfection, CFTR channel function was analyzed using the FLIPR membrane potential assay as previously described (Molinski et al., 2015). Briefly, the cells were loaded with blue membrane potential dye (Molecular Devices), which can detect changes in transmembrane potential. The plate was then read in a fluorescence plate reader (BioTek Synergy H1) for baseline levels followed by CFTR stimulation using the cAMP agonist forskolin (10 μM; Sigma), DMSO vehicle was used as a negative control. CFTR-mediated depolarization of the plasma membrane was detected as an increase in fluorescence and hyperpolarization (or repolarization) as a decrease. […]
FLIPR™ (Fluorescence Imaging Plate Reader) is a functional system that allows measuring changes in membrane potential by a fluorescent indicator. […]

T1 sequence (P13569 with tags, fused parts or gaps DEL1240-1291): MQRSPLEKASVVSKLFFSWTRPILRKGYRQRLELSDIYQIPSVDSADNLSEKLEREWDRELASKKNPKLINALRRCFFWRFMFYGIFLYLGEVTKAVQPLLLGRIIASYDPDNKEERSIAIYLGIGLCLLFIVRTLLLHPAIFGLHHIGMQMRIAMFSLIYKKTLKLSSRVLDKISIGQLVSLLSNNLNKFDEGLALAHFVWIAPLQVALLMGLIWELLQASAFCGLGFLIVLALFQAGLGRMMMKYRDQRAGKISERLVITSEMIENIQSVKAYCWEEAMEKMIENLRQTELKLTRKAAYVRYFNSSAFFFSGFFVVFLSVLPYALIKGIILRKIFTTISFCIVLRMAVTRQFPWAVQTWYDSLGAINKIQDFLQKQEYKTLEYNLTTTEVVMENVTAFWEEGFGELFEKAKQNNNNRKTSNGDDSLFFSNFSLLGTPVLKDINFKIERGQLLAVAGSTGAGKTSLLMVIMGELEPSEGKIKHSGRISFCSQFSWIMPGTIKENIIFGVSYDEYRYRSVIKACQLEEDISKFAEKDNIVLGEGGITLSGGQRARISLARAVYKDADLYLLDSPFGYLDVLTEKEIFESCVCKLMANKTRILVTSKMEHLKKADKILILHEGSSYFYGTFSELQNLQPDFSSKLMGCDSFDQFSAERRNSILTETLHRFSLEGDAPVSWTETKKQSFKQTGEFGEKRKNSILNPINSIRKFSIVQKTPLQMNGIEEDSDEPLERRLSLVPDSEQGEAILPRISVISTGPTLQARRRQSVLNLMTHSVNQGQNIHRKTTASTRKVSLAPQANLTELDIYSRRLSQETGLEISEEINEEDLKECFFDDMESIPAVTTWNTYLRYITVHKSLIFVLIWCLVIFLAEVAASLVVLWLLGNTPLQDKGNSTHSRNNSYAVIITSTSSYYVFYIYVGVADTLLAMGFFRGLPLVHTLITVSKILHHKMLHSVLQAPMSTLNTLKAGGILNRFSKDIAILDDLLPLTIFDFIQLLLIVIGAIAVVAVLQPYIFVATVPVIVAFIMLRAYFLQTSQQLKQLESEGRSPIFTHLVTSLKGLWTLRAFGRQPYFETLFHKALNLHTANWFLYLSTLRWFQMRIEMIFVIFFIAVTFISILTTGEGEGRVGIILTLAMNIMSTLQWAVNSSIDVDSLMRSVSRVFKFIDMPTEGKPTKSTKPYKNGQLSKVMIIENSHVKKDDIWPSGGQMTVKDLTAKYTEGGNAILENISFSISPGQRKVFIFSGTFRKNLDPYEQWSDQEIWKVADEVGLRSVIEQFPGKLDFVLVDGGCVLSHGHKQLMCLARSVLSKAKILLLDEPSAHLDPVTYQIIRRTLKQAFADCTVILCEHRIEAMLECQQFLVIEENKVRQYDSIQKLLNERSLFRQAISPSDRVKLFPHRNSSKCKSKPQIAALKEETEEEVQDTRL

As to `CC(C)(C)c1cc(C(C)(C)C)c(NC(=O)c2c[nH]c3ccccc3c2=O)cc1O` [VX-770, N-(2,4-Di-tert-butyl-5-hydroxyphenyl)-4-oxo-1,4-dihydroquinoline-3-carboxamide], the channel activation was 35 % of WT.
